Several values for one entry are separate records, joined by “and”; a condition that tells them apart may be missing. Identical values can stand only once. Like-named read-outs stand apart in the source and are kept apart here.
System: formaldehyde dehydrogenase
Assay type: biochemical, Burkholderia multivorans
[1] = metal ion 1 mM in enzyme reaction solution
[2] = metal ion 5 mM in enzyme reaction solution

## [Ca+2].[Cl-].[Cl-] [CaCl2]
[1]
  Relative activity (%): 50.67%
[2]
  Relative activity (%): 75.96%

## [Cl-].[Cl-].[Mg+2] [MgCl2]
5 frill Mg^2+
  enzyme activity in the presence of metal ion versus without it: 2.7 times
[1]
  Relative activity (%): 147.8%
[2]
  Relative activity (%): 269.6%

## [Cl-].[Cl-].[Zn+2] [ZnCl2]
[1]
  Relative activity (%): 63.99%
[2]
  Relative activity (%): 192.2%

## [Ba+2].[Cl-].[Cl-] [BaCl2]
[1]
  Relative activity (%): 98.55%
[2]
  Relative activity (%): 115.1%

## O=S(=O)([O-])[O-].[Cu+2] [CuSO4]
[1]
  Relative activity (%): 124.3%
[2]
  Relative activity (%): 91.30%

## [Cl][Mn][Cl] [MnCl2]
[1]
  Relative activity (%): 62.32%
[2]
  Relative activity (%): 111.6%

## [Cl-].[K+] [KCl]
[1]
  Relative activity (%): 104.0%
[2]
  Relative activity (%): 94.49%

## [Cl-].[Cl-].[Co+2] [CoCl2]
  Relative activity (%): 58.39% and 72.60%

— patent US9963684B2 (priority 2014, dated 2018)
